Data set [1] has as its system H460 (human lung cancer cell line). Briefly: MTS cytotoxicity assay, H460. The format is cell-based. Particulars: 72 h, mean ± SD. As to the method:
(§1) The cisplatin stock solution was prepared in PBS.
On the technique in general: Tetrazolium assays rely on reduction of a dye to a coloured formazan, in cell work by metabolically active cells.

Data set [2] relates to DU145 (human prostate cancer cell line). Briefly: MTS cytotoxicity assay, DU145. The format is cell-based. The conditions noted are these: 72 h, mean ± SD. As to the method:
as §1

Data set [3] concerns A549 (human lung carcinoma). As to the kind of experiment: MTS cytotoxicity assay, A549. The conditions noted are these: for IC50: MTS assay, 72 h, mean ± SD. Type of data set: cell-based. As to the method: as §1
Data set [4] deals with SKOV3 (human ovarian cancer cell line). As to the kind of experiment: MTS cytotoxicity assay, SKOV3. Type of data set: cell-based. Particulars: for IC50: MTS assay, 72 h, mean ± SD. As to the method:
as §1

In data set [5] the test system is MCF7 (human breast cancer cell line). Briefly: MTS cytotoxicity assay, MCF7. The conditions noted are these: 72 h, mean ± SD. Type of data set: cell-based. As to the method: as §1
Data set [6] has as its system HT29, empty vector transfected and shGLUT1-transfected cells. As to the kind of experiment: Cellular platinum accumulation (ICP-MS). The format is cell-based, human. Particulars: 200 μM, 2 h, DNA isolated. The method, then:
The uptake values are depicted in Figure 5H.
HT29 cells were seeded in 10 cm dishes at densities of 6 × 10^6 cells/dish and kept at 37°C in a humidified 5% CO2 incubator. […] The cell suspensions were centrifuged at 2500 rpm for 10 min and remove the PBS. Vortex vigorously to resuspend cells. Nuclei lysis solution was added to lyse the cells. DNA was extracted with TIANamp Genomic DNA kit (TIANGEN). The extracted DNA was dissolved in concentrated nitric acid (0.05 mL) and diluted with 4.95 mL of deionized water (final concentration 1% v/v) for determining the platinum content. The platinum content taken up by the cells was determined by Agilent 7700X ICP-MS (Agilent Technologies, Tokyo, Japan). Calibrations were done using standard solutions containing 6.25, 12.5, 25, 50 and 100 ppb platinum.

Data set [7] deals with 5′-Guanosine Monophosphate (5′-GMP). Briefly: Reaction kinetics with 5′-GMP by 1H NMR. Particulars: 5 mM complex, 10 mM 5′-GMP, 5 mM NaCl, pH 7.2-7.4, 37°C. The method, then: A 5 mM solution of the sodium chloride was added to the mixture to simulate the intracellular environment.
Kinetic study of the substitution reactions between sugar conjugated platinum complexes with 5′-Guanosine Monophosphate was performed on Bruker Avance 400 MHz spectrometer by ^1H NMR analysis. Platinum complex (5 mM) and 5′-GMP (10 mM) were freshly prepared in deuterium oxide (D2O) at 37°C. A 5 mM solution of the NaCl in D2O was added to the mixture just before running the spectra. All samples were incubated at 37°C in a water bath to simulate physiological conditions and 1H NMR spectra were recorded at 295 K over a period of several days.

Data set [8] concerns HT29 tumor xenograft BALB/c nude mice model. The method, then: Female BALB/c nude mice were inoculated by subcutaneous injection of HT29 human colon cancer cells (5 × 10^6). For the treatment groups, drug dosage was adjusted for average body weight for each group. Injection volume was 10 mL/kg. Each treatment group contains eight mice and control animals used ten mice and received injections of sterile saline. Treatments were initiated when the tumor reached a volume of 100-300 mm^3 in all mice. Animals received multiple treatments intravenously on days 0, 7, 14 and 21. […] Saline (5% v/v) was administered to the vehicle control group. Tumor volume was assessed regularly by measuring length (l) and width (w) with caliper and calculated using the formula V = lw^2/2. Body weight was recorded and used as a parameter of systemic toxicity. All mice were sacrificed on the 46th day of the experiment, and the tumor weight was measured.

For data set [9], the system named is HT29 (human colon cancer cell line). Particulars: read-out: IC50 (μM) HT29; MTS assay, 72 h, mean ± SD.
Protocol: The human colon cancer (HT29), breast cancer (MCF7), prostate cancer (DU145) and ovarian cancer (SK-OV-3) cell lines, were obtained from Central Institute of Pharmaceutical Research, CSPC Pharmaceutical Group, China. The human lung cancer cell lines H460 and A549 were purchased from the American Type Culture Collection (ATCC). […] MCF7 and SK-OV-3 were cultured in advanced Dulbecco's modified Eagle medium (DMEM), and other cell lines were cultured as adherent monolayer in RPMI-1640 supplemented with 1% (w/v) glutamine and 10% (v/v) fetal bovine serum (Gibco) at 37°C under a humidified atmosphere containing 5% CO2 and 95% air.
Cytotoxicity assays were carried out by the Celltiter 96 aqueous nonradioactive cell proliferation assay (Promega, Madison, WI). Cells were harvested by trypsinization and seeded in a 96-well flat-bottomed microplate in volumes of 100 μL at the following appropriate densities: 5.0 × 10^3 (A549), 8.0 × 10^3 (HT29), and 3.0 × 10^3 (H460), 5.0 × 10^3 (SKOV3), 8.0 × 10^3 (MCF7), 8.0 × 10^3 (DU145) cells per well. After being allowed to settle and resume exponential growth for 24 h, the cells were treated either with vehicle or with appropriate serial dilutions of the complexes. […] All the tested compounds were dissolved at room temperature prior to use and serially diluted in medium. Cells were incubated in a humidified atmosphere of 5% CO2 at 37°C for 72h. After incubation, 20 μL of MTS/PMS solution were added to each well and the mixtures were allowed to equilibrate for 2 h. The absorbance of MTS products was measured spectrophotometrically at 490 nm with microplate reader (VERSAmax, USA). The IC50 values of each test sample were calculated from nonlinear curve fits using dose-response equation in GraphPad Prism (La Jolla, CA). Experimental conditions were performed in five replicates and the calculated IC50 values are averages of three individual experiments.
In data set [10] the test system is DBA/2 mice. The conditions noted are these: both mouse models (DBA/2 and BALB/c).
Protocol: The maximum tolerated dose is defined as the highest tolerated dose (mean weight loss < 15%) without causing major (life-threatening) toxicity (< 15% toxic deaths) in the study.
Three weeks-old male DBA/2 mice purchased from Beijing Vital River Laboratory Animal Technology Co. Ltd. were used for MTD study. Determination of MTD was performed as previously described [22]. […] Physiological observations (body weight and food consumption) were recorded. The maximum tolerated dose is defined as the highest tolerated dose (mean weight loss < 15%) and not cause major (life-threatening) toxicity (< 15% toxic deaths) during the study.
The subject of data set [11] is L1210 leukemia bearing DBA/2 mice. Particulars: 5a 11 mg/kg (18% MTD) vs oxaliplatin 7 mg/kg (70% MTD), i.p., days 1, 5, 9.
Protocol: The same male DBA/2 mice were used for in vivo efficacy study. Mice were kept in a pathogen-free environment under a condition of constant photoperiod. […] Six mice for treatment groups and ten mice for control group were used for this in vivo study. L1210 murine leukemia cells (1 × 10^6) were injected intraperitoneally into DBA/2 mice on day 0. […] Control group of ten mice each received injections of sterile saline. Animals were observed daily for clinical signs of toxicity and body weight was measured throughout the study.
In data set [12] the test system is DBA/2 mice. The conditions noted are these: previous study; cited from earlier work.
For data set [13], the system named is BALB/c nude mice. The conditions noted are these: previous study; cited from earlier work.
Data set [14] relates to cisplatin resistant HT29cisR human colon carcinoma cell line. Briefly: Cytotoxicity in cisplatin resistant cells. Type of data set: cell-based. Particulars: read-out: IC50 against HT29cisR. The method, then:
as §1

Data set [15] has as its system pUC18 plasmid DNA. Briefly: Plasmid unwinding assay (gel electrophoresis). The conditions noted are these: 12.5 to 100 μM, 37°C.
Protocol: To assess if the in vitro anti-proliferative activity of the sugar conjugates may be at the DNA adduct level, a plasmid unwinding assay was performed. The local untwisting of closed-circular supercoiled DNA induced by different types of platinum−DNA adducts can be determined by this assay [36]. […] On agarose gels, supercoiled plasmid DNA (form I) migrates faster in an electrical field than the nicked circle (form II).
After the incubation period, drug-DNA mixtures were loaded onto 0.8% agarose gel and electrophoresis was performed in Tris-acetate/EDTA buffer (TAE) for 1.5 h at 80 V. The gel was stained with GelRed^TM nucleic acid dye, visualized and photographed on the Bio-Rad Trans illuminator IEC 1010 (Bio-Rad, Hercules, CA).
Data set [16] concerns HT29 human colon cancer cell line. As to the kind of experiment: GLUT1 inhibitor (quercetin) dependent cytotoxicity assay. The format is cell-based. The conditions noted are these: 48 h. As to the method:
(E) RT-PCR analysis of GLUT1 mRNA expression in empty vector transfected and shGLUT1-transfected cells. NT: HT29 cells; mock: HT29 cells transfected by empty vector pLKO.1; shRNA1: HT29 cells transfected by shGLUT1-1 and selected by 1 μg/mL of puromycin; shRNA2: HT29 cells transfected by shGLUT1-2 and selected by 1 μg/mL of puromycin. […] HT29 exposed with PBS or quercetin alone were served as negative control. […] Data was calculated from three independent experiments. *P < 0.05, compared to the control group.
HT29 cells were grown in monolayer and were treated with and without quercetin, followed by exposure to 100 μM of platinum(II) complexes for 48 h. MTS assay was used to analyze the cell viability and the effects of GLUT1 inhibitor quercetin on cytotoxicity.

The text below walks through data of article PMC5503626, “GLUT1-mediated selective tumor targeting with fluorine containing platinum(II) glycoconjugates” (Oncotarget, 2017).

On to `O=C1[O][Pt]2([NH][C@@H]3CCCC[C@H]3[NH]2)[O]C(=O)C1(F)CCO[C@H]1O[C@H](CO)[C@@H](O)[C@H](O)[C@H]1O` (stereo partly drawn) [5a, (trans-R,R-cyclohexane-1,2-diamine)-2-fluoromalonatoplatinum(II)-α-D-glucose conjugate], for which the IC50 (commonly the concentration that inhibits the measured activity by half) amounted to 11.05 ± 0.11 µM in data set [1]; 5.98 ± 0.16 µM in data set [2]; 0.35 ± 0.17 µM in data set [3]; 16.7 ± 0.32 µM in data set [4]; 0.61 ± 0.13 µM in data set [5]; 0.53 ± 0.16 µM in [9]. For the same compound, in data set [3] (versus oxaliplatin), the “activity higher than oxaliplatin in A549” value was 2 fold. The “platinum uptake (intracellular platinum accumulation)” value in data set [6] is “greater than that in HT29-shRNA1 and HT29-shRNA2 cells”. In addition, in data set [7], the “reaction with 5′-GMP compared to oxaliplatin” value is listed as “faster reactions”. Further, the tumor volume result in data set [8] (25 mg/kg i.v., days 0, 7, 14, 21) is recorded as “statistically significant tumor shrinkage”. Moreover, the “MTD higher than oxaliplatin” value in data set [10] is on record as roughly 5 fold. The “lifespan and survival rate” value in data set [11] was “overwhelming superiority in lifespan and survival rate”. The MTD in data set [12] was 60 mpk; in data set [13], 36 mpk.
In the case of `O=C1[O][Pt]2([NH][C@@H]3CCCC[C@H]3[NH]2)[O]C(=O)C1(F)CCO[C@H]1O[C@H](CO)[C@@H](O)[C@H](O)[C@@H]1O` (stereo partly drawn) [5b, (trans-R,R-cyclohexane-1,2-diamine)-2-fluoromalonatoplatinum(II)-α-D-mannose conjugate], the IC50 in [1] is 10.2 ± 0.15 µM; in data set [2], 2.6 ± 0.18 µM; in data set [3] it was 0.65 ± 0.1 µM; in [4], 2.22 ± 0.19 µM; in [5], 0.41 ± 0.09 µM; in data set [9] it was 2.16 ± 0.18 µM. In [4] (versus oxaliplatin), the “lower IC50 values than oxaliplatin in SK-OV-3” value was “up to 70%”. Besides, the “reaction with 5′-GMP compared to oxaliplatin” value in data set [7] is listed as “faster reactions”.
In the case of `O=C1[O][Pt]2([NH][C@@H]3CCCC[C@H]3[NH]2)[O]C(=O)C1(F)CCO[C@@H]1O[C@H](CO)[C@H](O)[C@H](O)[C@H]1O` (stereo partly drawn) [5c, (trans-R,R-cyclohexane-1,2-diamine)-2-fluoromalonatoplatinum(II)-β-D-galactose conjugate], the IC50 in [1] is 10 ± 0.15 µM; in [2], 5.11 ± 0.14 µM; in data set [3] it was 4.9 ± 0.16 µM; in data set [4] it was 22.05 ± 0.2 µM; in data set [5] it was 9.82 ± 0.12 µM; in data set [9], 1.07 ± 0.12 µM. The “reaction with 5′-GMP compared to oxaliplatin” value in data set [7] is listed as “faster reactions”.
With `N.N.[Cl][Pt][Cl]` [Cisplatin, cis-(NH3)2PtCl2], the IC50 in data set [14] turned out to be 19.4 µM. Moreover, the “mobility of supercoiled and singly-nicked plasmid DNA bands” value in data set [15] was “increased and showed concentration dependency”.
In the case of `O=C1[O][Pt]2([NH][C@@H]3CCCC[C@H]3[NH]2)[O]C1=O` [Oxaliplatin, reference compound], the IC50 in data set [1] is 22.11 ± 0.17 µM; in data set [2] it was 2.05 ± 0.16 µM; in data set [3] it was 0.86 ± 0.09 µM; in data set [4], 8.54 ± 0.18 µM; in data set [5], 0.79 ± 0.11 µM; in data set [9], 5.05 ± 0.2 µM. The “dependency of cell-killing potency on quercetin” value in data set [16] (100 μM platinum complex, with or without quercetin (20 μM)) is reported as “did not exhibit quercetin dependent cytotoxicity”. Moreover, the “body weight change versus vehicle group” value in data set [8] (5a 25 mg/kg, oxaliplatin 7 mg/kg, i.v. qw x 4) is recorded as “no significant difference”. For the same compound, the MTD in data set [12] is 10 mpk; in data set [13] it was 7 mpk. Further, the “mobility of supercoiled and singly-nicked plasmid DNA bands” value in data set [15] was “increased and showed concentration dependency”.
With `O=c1c(O)c(-c2ccc(O)c(O)c2)oc2cc(O)cc(O)c12` [quercetin], the “cytotoxic effect of quercetin alone” value in data set [16] (quercetin 20 μM alone) is reported as “did not exert any cytotoxic effect”.
